Read-outs that look alike come from different tables or passages of the source.
System: cancer cell lines from the cancer cell line encyclopedia (CCLE)
Assay: Cell line profiling (CLiP) proliferation experiment
Format: cell-based
Set-up: ACTIVITY_AREA: scale not given here; AMAX: unit not given here
Settings: for IC50: read-out: Crossing Point; for EC50: read-out: Inflection Point
Method: Compound profiling experiment and data analysis was performed as previously described. Data was imported and plotted using the Tibco Spotfire DXP application. Lines were categorized as sensitive, intermediate and refractory as follows: Amax<-40 & Inflection Point <2 ~ Sensitive, Amax>-20 & Inflection Point >10 ~ Refractory, all else were called Intermediate. Cancer Cell line HG-U133 Plus 2 data was processed and normalized as described. […] Five sets of refractory cell lines were generated from the pool of refractory cell lines trying to match the lineage composition of the set of sensitive cell lines. The limma package was used as previously described to perform the statistical comparison.

[1] = Homo sapiens, ZR-75-30, ZR-75-30 cell line, breast, ductal_carcinoma
[2] = KYO1, KYO-1 (haematopoietic_and_lymphoid_tissue)
[3] = LP-1 (haematopoietic_and_lymphoid_tissue)
[4] = Loucy (haematopoietic_and_lymphoid_tissue)
[5] = MOLM16, cell line MOLM-16 (haematopoietic_and_lymphoid_tissue)
[6] = NCI-H1869, lung, squamous_cell_carcinoma
[7] = NCI-H2073, NCI-H2073, lung, adenocarcinoma
[8] = OCI-M1, OCI-M1, haematopoietic_and_lymphoid_tissue, acute_myeloid_leukaemia
[9] = PaTuÂ 8988s, cell line PA-TU-8988S
[10] = SH-10-TC, cell line SH-10-TC, stomach
[11] = SNU878, cell line SNU-878, liver, hepatocellular_carcinoma
[12] = SUP-M2, SUP-M2 (haematopoietic_and_lymphoid_tissue, anaplastic_large_cell_lymphoma)
[13] = T24 (urinary_tract, transitional_cell_carcinoma)
[14] = T84 (large_intestine, adenocarcinoma)
[15] = TE-1 (oesophagus, squamous_cell_carcinoma)
[16] = TEN (endometrium, clear_cell_carcinoma)
[17] = TT2609-C02 (thyroid, follicular_carcinoma)
[18] = U266B1 (haematopoietic_and_lymphoid_tissue, plasma_cell_myeloma)

CC(C)[C@@]12C[C@@H](O)[C@@](C)(O1)[C@@H]1CC[C@@H](C)[C@H]1[C@@H]2OC(=O)/C=C/c1ccccc1 [Englerin B]
IC50 [1]: > 30 µM
EC50 [1]: 29.7 µM
IC50 (Hs766T, cell line Hs 766T, pancreas): > 30 µM
IC50 (Hs766T, cell line Hs 766T): > 30 µM
IC50 (Hs 940.T cells): > 30 µM
IC50 (IGR-39, cell line IGR-39, skin): > 30 µM
IC50 (IGR-39, cell line IGR-39): > 30 µM
IC50 (JHH7, JHH-7): 13.7 µM
IC50 (JHH-2, JHH-2): > 30 µM
IC50 (JHH-2, cell line JHH-2): > 30 µM
IC50 (JHH-5): 12.4 µM
IC50 (JHOM-1): 28.8 µM
EC50 (JHOM-1): 28.8 µM
IC50 (JHUEM-2): 15.2 µM
IC50 (JHUEM-2 cells): 15.2 µM
IC50 (K029AX (skin)): > 30 µM
IC50 (K029AX): > 30 µM
EC50 (K029AX): 26.4 µM
IC50 (KASUMI-2): 15.8 µM
EC50 (KASUMI-2): 10.6 µM
IC50 (KASUMI-2 cells): 15.8 µM
EC50 (KASUMI-2 cells): 10.6 µM
EC50 (KHM-1B, KHM-1B cells): 17.2 µM
IC50 (KHM-1B): 19.5 µM
EC50 (KHM-1B): 17.2 µM
IC50 (KMM-1, KMM-1): 15.7 µM
IC50 (KMRC-1, KMRC-1): > 30 µM
IC50 (KMRC-1, KMRC-1 cells): > 30 µM
IC50 (KMRC-2): > 30 µM
IC50 (KMRC-2 cells): > 30 µM
IC50 (KMRC-20): > 30 µM
EC50 (KMRC-20): 0.14 µM
IC50 (KMRC-20 cells): > 30 µM
EC50 (KMRC-20 cells): 0.14 µM
IC50 (KMS-26, KMS-26): 15.5 µM
EC50 (KMS-26, KMS-26): 16.6 µM
EC50 (KMS-26, KMS-26 cells): 16.6 µM
IC50 (KMS-27, KMS-27): 28.4 µM
EC50 (KMS-27, KMS-27): 28.4 µM
IC50 (KMS-27, KMS-27 cells): 28.4 µM
EC50 (KMS-27, KMS-27 cells): 28.4 µM
IC50 (KMS-28BM): 29.2 µM
IC50 (KMS-34, KMS-34): 27.9 µM
IC50 (KO52): 27 µM
IC50 (KP-1NL (pancreas)): > 30 µM
IC50 (KP-1NL): > 30 µM
IC50 (KP-N-SI9s): 21.7 µM
EC50 (KP-N-SI9s): 23.1 µM
IC50 (KP-N-YN (autonomic_ganglia)): > 30 µM
IC50 (KP-N-YN): > 30 µM
IC50 (KPL-1, KPL-1): 19.9 µM
IC50 (KS-1): 28.3 µM
IC50 (KURAMOCHI (ovary)): 20.7 µM
EC50 (KURAMOCHI (ovary)): 16.1 µM
IC50 (KYM-1 (soft_tissue)): 12.7 µM
IC50 [2]: 19.7 µM
EC50 [2]: 12.1 µM
EC50 (KYO1, KYO-1 cells): 12.1 µM
IC50 (Karpas-620, KARPAS-620): 17.6 µM
EC50 (Karpas-620, KARPAS-620): 17.6 µM
IC50 (Kelly): 15.4 µM
EC50 (Kelly): 16 µM
IC50 (Ki-JK (haematopoietic_and_lymphoid_tissue)): 14.5 µM
IC50 (Ki-JK): 14.5 µM
EC50 (Ki-JK): 14.1 µM
IC50 (L3.3 (pancreas)): > 30 µM
IC50 (LC-1/sq-SF (lung)): > 30 µM
EC50 (LC-1/sq-SF (lung)): 22.8 µM
IC50 (LK-2 (lung)): > 30 µM
IC50 (LMSU (stomach)): 20 µM
IC50 [3]: 18.7 µM
EC50 [3]: 18.7 µM
IC50 (LP-6 (soft_tissue)): > 30 µM
IC50 (Li-7 (liver)): > 30 µM
IC50 [4]: 13.6 µM
EC50 [4]: 12.2 µM
IC50 (MB 157 (breast)): > 30 µM
EC50 (MB 157 (breast)): 14.7 µM
IC50 (MCAS (ovary)): > 30 µM
IC50 (MDST8, MDST8 (large_intestine)): > 30 µM
IC50 [5]: 15.3 µM
EC50 [5]: 15.3 µM
IC50 (Mel202, cell line Mel202 (eye)): > 30 µM
EC50 (Mel202, cell line Mel202 (eye)): 20.6 µM
IC50 (Mel202, cell line Mel202): > 30 µM
IC50 (Mono-Mac-1, cell line MONO-MAC-1 (haematopoietic_and_lymphoid_tissue)): 21.4 µM
IC50 (NCI-H196, NCI-H196, lung, small_cell_carcinoma): > 30 µM
IC50 (NCI-H196, cell line NCI-H196): > 30 µM
IC50 (NCI-H841, NCI-H841, lung, small_cell_carcinoma): 17.1 µM
IC50 (NCI-H1568, cell line NCI-H1568 (lung)): 6.63 µM
IC50 (NCI-H1781, cell line NCI-H1781 (lung)): 11.2 µM
IC50 [6]: > 30 µM
EC50 [6]: 2.95 µM
IC50 (NCI-H1869 cells): > 30 µM
EC50 (NCI-H1869 cells): 2.95 µM
IC50 (NCI-H2023, NCI-H2023, lung, adenocarcinoma): 13.3 µM
IC50 [7]: 24 µM
EC50 [7]: 20.3 µM
IC50 (NCI-H2106, lung, non_small_cell_carcinoma): > 30 µM
IC50 (NCI-H2172, NCI-H2172, lung, non_small_cell_carcinoma): 24.8 µM
IC50 (NCI-H2330, lung, small_cell_carcinoma): > 30 µM
IC50 (OC 316, ovary, adenocarcinoma): > 30 µM
IC50 [8]: 13.5 µM
EC50 [8]: 11.8 µM
EC50 (OCI-M1, OCI-M1 cells): 11.8 µM
IC50 (OMM2.3 (eye)): > 30 µM
IC50 (OMM2.5 cells): > 30 µM
IC50 (ONCO-DG-1, cell line ONCO-DG-1): 3.52 µM
EC50 (OUMS-23, OUMS-23 cells): 17.7 µM
IC50 (OUMS-23, cell line OUMS-23): 14.8 µM
EC50 (OUMS-23, cell line OUMS-23): 17.7 µM
IC50 (OV7, OV7 cells): > 30 µM
IC50 (OV56, OV56 cells): > 30 µM
IC50 (OV56, cell line OV56): > 30 µM
EC50 (PL-21, PL-21 cells): 26.2 µM
IC50 (PL-21, cell line PL-21): 21 µM
EC50 (PL-21, cell line PL-21): 26.2 µM
IC50 [9]: 23.3 µM
EC50 [9]: 23.3 µM
IC50 (RCC10RGB cells): > 30 µM
EC50 (RCH-ACV cells): 12.1 µM
IC50 (RERF-LC-AI cells): > 30 µM
EC50 (RERF-LC-AI cells): 17.9 µM
IC50 (RKN (soft_tissue)): > 30 µM
EC50 (RKO (large_intestine)): 13.1 µM
IC50 (RMUG-S (ovary)): > 30 µM
IC50 (Ri-1, RI-1 cells): 9.99 µM
EC50 (Ri-1, RI-1 cells): 9.99 µM
IC50 (SH-4 (skin)): > 30 µM
IC50 (SH-10-TC, SH-10-TC (stomach)): > 30 µM
IC50 [10]: > 30 µM
EC50 [10]: 11.1 µM
IC50 (SNG-M (endometrium)): > 30 µM
IC50 [11]: 27.3 µM
EC50 [11]: 27.3 µM
IC50 (SNU-119 (ovary)): > 30 µM
IC50 (SNU-216, SNU-216 (stomach)): > 30 µM
IC50 (SNU-216, cell line SNU-216, stomach): > 30 µM
IC50 (SNU-738 (central_nervous_system)): > 30 µM
IC50 (SNU-C5 (large_intestine)): > 30 µM
IC50 (SNU-C5 (large_intestine, adenocarcinoma)): > 30 µM
IC50 (SR-786, SR-786 (haematopoietic_and_lymphoid_tissue)): > 30 µM
IC50 (SR-786, SR-786 (haematopoietic_and_lymphoid_tissue, anaplastic_large_cell_lymphoma)): > 30 µM
IC50 (SUM52, SUM-52 (breast)): > 30 µM
IC50 (SUM52, SUM-52 (breast, NS)): > 30 µM
IC50 (SUM52PE, SUM52PE (breast)): > 30 µM
IC50 (SUM52PE, SUM52PE (breast, NS)): > 30 µM
IC50 [12]: 18.2 µM
EC50 [12]: 18.2 µM
IC50 (SUP-M2, SUP-M2 cells): 18.2 µM
EC50 (SUP-M2, SUP-M2 cells): 18.2 µM
IC50 (SW1271, SW 1271 (lung)): > 30 µM
IC50 (SW1271, SW 1271 (lung, small_cell_carcinoma)): > 30 µM
IC50 (T24 (urinary_tract)): > 30 µM
IC50 [13]: > 30 µM
EC50 [13]: 5 µM
IC50 [14]: 28.3 µM
EC50 [14]: 9.52 µM
IC50 (T778 (soft_tissue)): > 30 µM
IC50 (T778 (soft_tissue, well_differentiated)): > 30 µM
IC50 (TC-71, TC-71 (bone, NS)): 25.2 µM
IC50 (TE 617.T (soft_tissue, NS)): 16.5 µM
EC50 (TE 617.T (soft_tissue, NS)): 11.9 µM
EC50 (TE 617.T cells): 11.9 µM
IC50 [15]: 18.9 µM
EC50 [15]: 16.5 µM
IC50 (TE-5 (oesophagus, squamous_cell_carcinoma)): 29.6 µM
IC50 (TE-6 (oesophagus, squamous_cell_carcinoma)): 23.8 µM
IC50 (TEN (endometrium)): > 30 µM
IC50 [16]: > 30 µM
EC50 [16]: 13.1 µM
IC50 (TF-1 (haematopoietic_and_lymphoid_tissue, acute_myeloid_leukaemia)): 16.7 µM
IC50 [17]: 22.3 µM
EC50 [17]: 14.6 µM
EC50 (TT2609-C02 cells): 14.6 µM
IC50 (U266B1 (haematopoietic_and_lymphoid_tissue)): > 30 µM
IC50 [18]: > 30 µM
EC50 [18]: 16 µM
ACTIVITY_AREA (UACC-62 cell line, skin, NS): 41.15
AMAX (UACC-62 cell line, skin, NS): -44.29
RESPONSE (UACC-62 cell line, skin, NS): INTERMEDIATE
ACTIVITY_AREA (UACC-257 (skin, NS)): 31.33
AMAX (UACC-257 (skin, NS)): -80.26
RESPONSE (UACC-257 (skin, NS)): INTERMEDIATE

Reference: article PMC4476799, “Englerin A Agonizes the TRPC4/C5 Cation Channels to Inhibit Tumor Cell Line Proliferation” (PLoS ONE, 2015)
